In patent publication US20120277209A1, “PYRAZINE COMPOUNDS AS PHOSPHODIESTERASE 10 INHIBITORS” (Amgen Inc., priority 2009, published 2012):

Biological target: PDE10 (UniProt Q9Y233)
Assay: PDE10 enzyme inhibition, IMAP TR-FRET assay (MPDE10A7 Enzyme Activity and Inhibition)
Assay type: biochemical
Details: IC50 class against PDE10; read-out: IC50
Outline: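 IMAP TR-FRET read-out of PDE10 hydrolysis of fluorescein-cAMP or -cGMP (60 min, room temperature), after a 30 min compound-enzyme preincubation. Enzyme source was PDE10A or tissue homogenate. Averaged IC50s are reported as five range classes.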

| SMILES | IC50 [nM] |
| --- | --- |
| c1ccc2sc(Nc3ccc(Oc4nccnc4C4CCOC4)cc3)nc2c1 (stereo not drawn) [Example 221, N-(4-(3-(TETRAHYDROFURAN-3-YL)PYRAZIN-2-YLOXY)PHENYL)BENZO[D]THIAZOL-2-AMINE] | < 25 |
| N#Cc1ccc(-c2nccnc2Oc2ccc(Nc3nc4ccccc4s3)cc2)cn1 [Example 142, 5-(3-(4-(benzo[d]thiazol-2-ylamino)phenoxy)pyrazin-2-yl)picolinonitrile] | < 25 |
| CC(C)(O)C1CCN(c2nccnc2Oc2ccc(Nc3nc4ccccc4s3)cc2)CC1 [Example 66, 2-(1-(3-(4-(benzo[d]thiazol-2-ylamino)phenoxy)pyrazin-2-yl)piperidin-4-yl)propan-2-ol] | < 25 |
| CC1CN(c2nccnc2Oc2ccc(Nc3nc4ccccc4s3)cc2)CC(C)O1 (stereo not drawn) [Example 74, N-(4-(3-(2,6-dimethylmorph-olino)pyrazin-2-yloxy)phenyl)-benzo[d]thiazol-2-amine] | 25 to 100 |
| Fc1cccc2nc(Nc3ccc(Oc4nccnc4Cl)cc3)sc12 [Example 100, N-(4-(3-chloropyrazin-2-yloxy)-phenyl)-7-fluorobenzo[d]thiazol-2-amine] | 1000 to 5000 |
| COC(=O)N1CCC(c2nccnc2Oc2ccc(C(=O)c3nc4ccccc4[nH]3)cc2)CC1 [Example 227, methyl 4-(3-(4-(1H-benzo[d]imidazole-2-carbonyl)phenoxy)pyrazin-2-yl)piperidine-1-carboxylate] | < 25 |
| COc1cccc(-c2nccnc2Oc2ccc(Nc3nc4ccccc4s3)cc2)c1 [Example 150, N-(4-(3-(3-methoxyphenyl)pyrazin-2-yloxy)phenyl)benzo[d]thiazol-2-amine] | 25 to 100 |
| CC(=O)N1CCN(c2nccnc2Oc2ccc(Nc3nc4ccccc4s3)cc2)CC1 [Example 71, 1-(4-(3-(4-(benzo[d]thiazol-2-ylamino)phenoxy)pyrazin-2-yl)piperazin-1-yl)ethanone] | 25 to 100 |
| Fc1ccc2nc(Nc3ccc(Oc4nccnc4C4CCOCC4)cc3)sc2c1 [Example 214, 6-fluoro-N-(4-(3-(tetrahydro-2H-pyran-4-yl)pyrazin-2-yloxy)phenyl)benzo[d]thiazol-2-amine] | < 25 |
| Cc1nc2c([nH]1)CCN(c1nccnc1Oc1ccc(Nc3nc4ccccc4s3)cc1)C2 [Example 82, N-(4-(3-(2-methyl-6,7-dihydro-1H-imidazo[4,5-c]pyridin-5(4H)-yl)pyrazin-2-yloxy)phenyl)benzo-[d]thiazol-2-amine] | 100 to 250 |
| O=C(c1ccc(Oc2nccnc2C2CCN(CCF)CC2)cc1)c1nc2ccccc2[nH]1 [Example 226, (1H-BENZO[D]IMIDAZOL-2-YL)(4-(3-(1-(2-FLUOROETHYL)PIPERIDIN-4-YL)PYRAZIN-2-YLOXY)PHENYL)METHANONE] | < 25 |
| CC(C)(C)OC(=O)N1CC=C(c2nccnc2Oc2ccc(Nc3nc4ccccc4s3)c(F)c2)CC1 [Example 159, tert-butyl 4-(3-(4-(benzo[d]thiazol-2-ylamino)-3-fluorophenoxy)pyrazin-2-yl)-5,6-dihydropyridine-1(2H)-carboxylate] | < 25 |

The next lines start with the values.

| IC50 [nM] | SMILES |
| --- | --- |
| < 25 | O=C(c1ccc(Oc2nccnc2C(=O)NCCc2ccccc2)cc1)c1nc2ccccc2[nH]1 [Example 254, 3-(4-(1H-benzo[d]imidazole-2-carbonyl)phenoxy)-N-phenethylpyrazine-2-carboxamide] |
| 250 to 1000 | O=C(c1ccc(Oc2nccnc2OCC2CC2)cc1)c1nc2ccccc2[nH]1 [Example 163, (1H-benzo[d]imidazol-2-yl)(4-(3-(cyclopropylmethoxy)pyrazin-2-yloxy)phenyl)methanone] |
| < 25 | O=C(c1ccc(Oc2nccnc2-c2ccc[nH]c2=O)cc1)c1nc2ccccc2[nH]1 [Example 106, 3-(3-(4-(1H-BENZO[D]IMIDAZOLE-2-CARBONYL)PHENOXY)PYRAZIN-2-YL)PYRIDIN-2(1H)-ONE] |
| < 25 | N#CC1(c2nccnc2Oc2ccc(C(=O)c3nc4ccccc4[nH]3)cc2)CCOCC1 [Example 211, 4-(3-(4-(1H-benzo[d]imidazole-2-carbonyl)phenoxy)pyrazin-2-yl)tetrahydro-2H-pyran-4-carbonitrile] |
| < 25 | COc1ccc(-c2nccnc2Oc2ccc(C(=O)c3nc4ccccc4[nH]3)cc2)cn1 [Example 121, (1H-benzo[d]imidazol-2-yl)(4-(3-(6-methoxypyridin-3-yl)pyrazin-2-yloxy)phenyl)methanone] |
| 25 to 100 | Cc1ncccc1-c1nccnc1Oc1ccc(C(=O)c2nc3ccccc3[nH]2)cc1 [Example 109, (1H-benzo[d]imidazol-2-yl)(4-(3-(2-methylpyridin-3-yl)pyrazin-2-yloxy)phenyl)methanone] |
| < 25 | COc1nc2ccccc2cc1-c1nccnc1Oc1ccc(C(=O)c2nc3ccccc3[nH]2)cc1 [Example 115, (1H-benzo[d]imidazol-2-yl)(4-(3-(2-methoxyquinolin-3-yl)pyrazin-2-yloxy)phenyl)methanone] |
| 100 to 250 | O=C(c1ccc(Oc2nccnc2Oc2ccccc2)cc1)c1nc2ccccc2[nH]1 [Example 167, (1H-benzo[d]imidazol-2-yl)(4-(3-phenoxypyrazin-2-yloxy)phenyl)methanone] |
| < 25 | COc1ncccc1-c1nccnc1Oc1ccc(C(=O)c2nc3ccccc3[nH]2)cc1 [Example 122, (1H-benzo[d]imidazol-2-yl)(4-(3-(2-methoxypyridin-3-yl)pyrazin-2-yloxy)phenyl)methanone] |
| < 25 | N#Cc1cccc(-c2nccnc2Oc2ccc(C(=O)c3nc4ccccc4[nH]3)cc2)c1 [Example 125, 3-(3-(4-(1H-benzo[d]imidazole-2-carbonyl)phenoxy)pyrazin-2-yl)benzonitrile] |

Same assay, conditions: PDE10 enzyme inhibition; average IC50 data for each compound; read-out: Average IC50

| SMILES | IC50 [nM] |
| --- | --- |
| CC(=O)N1CCC(c2nccnc2Oc2ccc(Nc3nc4ccccc4s3)cc2)CC1 [drawing 893] | 0.059 |
| C[C@@H](F)C(=O)N1CCC(c2nccnc2Oc2ccc(C(=O)c3nc4ccccc4[nH]3)cc2)CC1 (stereo in doubt) | 0.132 |
| COCC(=O)N1CCC(c2nccnc2Oc2ccc(C(=O)c3nc4ccccc4[nH]3)cc2)CC1 [drawing 945] | 0.0365 |
| C[C@@H]1CN(c2nccnc2Oc2ccc(Nc3nc4ccccc4s3)cc2)CC(=O)N1 (racemic) | 4.64 |
| FC1(c2nccnc2Oc2ccc(Nc3nc4ccccc4s3)cc2)CCOCC1 [drawing 927] | 12.2 |
| Clc1ccc(-c2nccnc2Oc2ccc(Nc3nc4ccccc4s3)cc2)cn1 [drawing 794] | 14.6 |
| C[C@H]1CN(c2nccnc2Oc2ccc(Nc3nc4ccccc4s3)cc2)CC(=O)N1 [drawing 835] | 17.1 |
| COC(=O)N1CCC(c2nccnc2Oc2ccc(C(=O)c3nc4ccccc4[nH]3)cc2)CC1 [drawing 971] | 0.0615 |
| O=C(c1ccc(Oc2nccnc2C(=O)NC2(Cc3ccccc3)CC2)cc1)c1nc2ccccc2[nH]1 [drawing 822] | 0.575 |
| c1ccc2sc(Nc3ccc(Oc4nccnc4-c4cccc5ncccc45)cc3)nc2c1 [drawing 821] | 14.4 |
| COC(=O)C1CN(c2nccnc2Oc2ccc(Nc3nc4ccccc4s3)cc2)C1 [drawing 722] | 8.4 |
| N#C[C@@H]1CCCN(c2nccnc2Oc2ccc(C(=O)c3nc4ccccc4[nH]3)cc2)C1 (stereo in doubt) | 6.79 |
| O=C(c1ccc(Oc2nccnc2C2CCOCC2)cc1)c1nc2ccc(F)cc2[nH]1 [drawing 987] | 0.593 |
| COCC(=O)N1CCC(c2nccnc2Oc2ccc(Nc3nc4ccccc4s3)cc2)CC1 [drawing 946] | 0.024 |
| Fc1ccc2sc(Nc3ccc(Oc4cnccn4)cc3)nc2c1 [drawing 882] | 12500 |
| COC(=O)C1(c2nccnc2Oc2ccc(Nc3nc4ccccc4s3)cc2)CCOCC1 [drawing 871] | 6.28 |

Continued, values first:

| IC50 [nM] | SMILES |
| --- | --- |
| 556 | O=C(c1ccc(Oc2nccnc2C(=O)O)cc1)c1nc2ccccc2[nH]1 |
| 29.1 | COCCOc1nccnc1Oc1ccc(C(=O)c2nc3ccccc3[nH]2)cc1 [drawing 848] |
| 2120 | O=C(c1ccc(Oc2nccnc2Oc2ccccc2)cc1)c1nc2ccccc2[nH]1 [drawing 850] |
| 7.63 | CC(=O)N1CC[C@@H](c2nccnc2Oc2ccc(C(=O)c3nc4ccccc4[nH]3)cc2)C1 (stereo in doubt) |
| 33 | COC(=O)c1ccc(-c2nccnc2Oc2ccc(C(=O)c3nc4ccccc4[nH]3)cc2)cc1 [drawing 758] |
| 1.86 | CN1CCC(c2nccnc2Oc2ccc(C(=O)c3nc4ccccc4[nH]3)cc2)=CC1=O [drawing 921] |
| 242 | O=C(c1ccc(Oc2nccnc2-c2ccnc(C(F)(F)F)c2)cc1)c1nc2ccccc2[nH]1 [drawing 753] |
| 6.94 | O=C(c1ccc(Oc2nccnc2N2CC(O)C2)cc1)c1nc2ccccc2[nH]1 |
| 6.03 | Cc1nnc2n1CCN(c1nccnc1Oc1ccc(C(=O)c3nc4ccccc4[nH]3)cc1)C2 |
| 0.489 | COc1cnccc1-c1nccnc1Oc1ccc(C(=O)c2nc3ccccc3[nH]2)cc1 [drawing 960] |
| 1580 | O=C(c1ccc(Oc2nccnc2Cl)cc1)c1nc2ccc(F)cc2[nH]1 [drawing 813] |
| 8.05 | O=C(c1ccc(Oc2nccnc2OCCc2ccccn2)cc1)c1nc2ccccc2[nH]1 [drawing 860] |
| 1.04 | O=C(c1ccc(Oc2nccnc2[C@H]2CC[C@@H](O)CC2)cc1)c1nc2ccccc2[nH]1 [drawing 797] |
| 2.9 | COc1ccccc1-c1nccnc1Oc1ccc(C(=O)c2nc3ccccc3[nH]2)cc1 [drawing 944] |
| 1.02 | O=C(c1ccc(Oc2nccnc2[C@@H]2CCC[C@H](O)C2)cc1)c1nc2ccccc2[nH]1 (stereo in doubt) |
| 1.86 | Cc1ncsc1CCOc1nccnc1Oc1ccc(C(=O)c2nc3ccccc3[nH]2)cc1 [drawing 853] |
| 0.199 | O=C1CCC(c2nccnc2Oc2ccc(C(=O)c3nc4ccccc4[nH]3)cc2)CC1 [drawing 911] |
| 1.76 | O=C(c1ccc(Oc2nccnc2C2CCCC2)cc1)c1nc2ccccc2[nH]1 [drawing 949] |

Same assay, conditions: PDE10 enzyme inhibition; chiral compounds separated from racemic mixtures; read-out: IC50

| IC50 [nM] | SMILES |
| --- | --- |
| < 25 | O=C(c1ccc(Oc2nccnc2[C@@H]2CCC[C@H](O)C2)cc1)c1nc2ccccc2[nH]1 [Example 269, (1H-benzo[d]imidazol-2-yl)(4-(3-((1R,3S)-3-hydroxycyclohexyl)pyrazin-2-yloxy)phenyl) methanone] |
